The values that follow come from US8138338B2, “Aurora kinase inhibitors from an encoded small molecule library” (GlaxoSmithKline LLC, priority 2006, dated 2012).

Each structure is given as a SMILES string.

Usually EC50 stands for the concentration needed to bring the measured effect to its halfway point.

The subject of the first assay is secretion of TNF-α from LPS-stimulated human monocytes. Nature of the assay: LPS-induced TNF-alpha production in human THP-1 cell line. Format: cell-based. Conditions: LPS-stimulated human monocytes (THP-1), 4 hr; read-out: EC50 for inhibition of TNF-α secretion. Here is the method:
THP-1 (human, monocytic) cell line was purchased from the American Type Culture Collection (ATCC, Cat. No. TIB 202). Cell line was passaged three times per week in RPMI 1640 (GIBCO), supplemented with 10% heat-inactivated fetal bovine serum (FBS; Omega Scientific, Tarzana, Calif.), 2 mM L-glutamine, 100 U/ml penicillin and 100 μg/ml streptomycin (Gibco/Invitrogen, Carlsbad, Calif.) in a humidified incubator with 95% air and 5% CO2 at 37° C.
For the assay THP-1 cells were harvested, counted and suspended at 1E6 cells/ml in culture medium. […] of cell suspension was added to each well at 96 well plates to provide density of 2×10^5 cells per well. Serial dilutions of P38 compounds were prepared at final concentrations in culture medium from a 10 mM stock solution, and assayed in triplicate. Vehicle was prepared by adjusting culture medium to 0.1% v/v DMSO which corresponds to the concentration of DMSO in the wells with test compounds.
Cells were incubated in presence of the P38 inhibitor for 30 min. After that cells were stimulated with LPS (E. coli 026:B6, 1 μg/ml) for 4 hr at 37° C. in a 5% CO2-incubator. Reaction was stopped by placing samples on ice and centrifuging for 10 min at 1500×g at 4° C. Cell supernatants were harvested and concentration of TNF- was determined by ELISA (BD Pharmingen, San Diego, Calif., Cat. No. 555212), following the manufacturer's instruction. Absorbance read and analyzed at 450 nm on a spectrophotometric ELISA plate reader (Labsystems Multiskan MCC/340). Replicate readings were averaged and the results are expressed as a percent of OD signal from control.
`CONC(=O)c1ccc(C)c(Nc2nc(NCC3CCCC(CN)C3)nc(NC3CCCCC3C)n2)c1` (stereo not shown) [Compound 10]: the EC50 was 0.022 µM. Turning to `CONC(=O)c1ccc(C)c(Nc2nc(NCC3CCCC(CN)C3)nc(NC3CCCCC3)n2)c1` (stereo not shown) [Compound 11], the EC50 worked out at 0.011 µM. For the compound `CONC(=O)c1ccc(C)c(Nc2nc(NCc3cccc(C)c3)nc(N[C@H](C)C(C)(C)C)n2)c1` [Compound 12], the half-maximal effective concentration (EC50) is 0.122 µM.

In another assay the test system is HCT116 (human colorectal cancer cells). As to the kind of experiment: Cell proliferation assay (MTT) using HCT-116 cell line. The assay is classed as cell-based. Conditions: 72 h, human carcinoma cell line HCT-116, three days. Here is the method: Cell proliferation assay for Aurora-A compounds using HCT-116 Cell Line HCT116 (human colorectal cancer cells) was obtained from the American Type Culture Collection (Cat. No. CCL-247, Rockville, Md.). Cells were maintained in monolayer culture in McCoy's 5A supplemented with 10% fetal bovine serum (FBS; Omega Scientific, Tarzana, Calif.), 2 mM L-glutamine, 50 IU/ml penicillin and 50 μg/ml streptomycin (Gibco/Invitrogen, Carlsbad, Calif.) in a humidified incubator with 95% air and 5% CO2 at 37° C.
A single cell suspension was prepared by trypsinization, to provide 1.25E4 cells per mL in their respective culture medium. 96 well plates were seeded with 200 μl/well of the cell suspension to provide an initial seeding density of 2500 cells per well. The plates were placed in a tissue culture incubator (5% CO2, 37° C.) overnight to let cells become adherent.
Serial dilutions of the testing compounds were prepared at final concentrations in culture medium from a 10 mM stock solution, and assayed in triplicate. The vehicle was prepared by adjusting culture medium to 0.1% v/v DMSO which corresponds to the concentration of DMSO in the wells with test compounds. Test plates were then placed in a tissue culture incubator (5% CO2, 37° C.) for three days after which the MTT assay was performed.
The MTT assay is a measure of cell viability based on cellular dehydrogenase enzymatic cleavage of the tetrazolium rings in MTT the product of which is measured spectrophotometrically. A 25 μL aliquot of 5 mg/mL MTT (3′[4,5-dimethylthiazol-2-yl]-2,5-diphenyl-tetrazolium bromide, Sigma Cat. No. M2128) prepared in PBS was added directly to the wells. The plates were incubated at 37° C. for two hours, the MTT solution was removed, 150 μL of isopropanol was added to each well, and the plates were rocked at room temperature for 10 minutes. The optical density of the wells was quantitated with a Labsystems Multiskan plate spectrophotometer at 570 nm. Replicate readings were averaged. The results are expressed as a percent of OD signal from control.
As for `CCCCN(C)c1nc(NCCc2ccccc2OC)nc(NC(Cc2c[nH]c3ncccc23)C(N)=O)n1` (stereo not shown) [Compound 1], a half-maximal response (EC50) required 3.6 µM. The same measure, in the same setting: under `CCCCN(C)c1nc(NCCc2ccccc2OC)nc(NCCc2c[nH]c3ncccc23)n1` [Compound 2] stands 3.6 µM; under `C=CCN(c1nc(NCCc2c[nH]c3ncccc23)nc(NCc2cccn2C)n1)C1CCCCC1` [Compound 3], 10 µM. Still for that read-out and setting: the same measure for `COc1ccc(Nc2nc(Nc3ccc4ncccc4c3)nc(NC(Cc3c[nH]c4ncccc34)C(N)=O)n2)cc1OC` (stereo not shown) [Compound 7]: 10 µM.
